# Experimental data: US20200362301A1, “EFFICIENT, SCALABLE PRODUCTION OF HUMAN RETINAL PROGENITORS IN VITRO” (Wisconsin Alumni Research Foundation, priority 2019, published 2020)
# Legend:
# Format in all cases: cell-based, human
# PAX6D TetOn cells [1] = assay: qPCR of retinal gene expression in PAX6D TetOn cells with DOX induction, with or without WNT agonist
# Text: (§1) We then examined the retinal progenitor population when PAX6A or PAX6D was induced. We turned on PAX6A and PAX6D separately in PAX6 KO cells after neuroepithelial cells were generated at day 6 and monitored the retinal progenitor generation along retinal differentiation. […] Thus, PAX6D but not PAX6A restores the PAX6 function in retinal specification.
# (§2) We then asked if the failure of retinal specification in the PAX6D KO cells is rescued by regulating WNT signaling. Treatment of the PAX6D KO cells with IWR1 during retinal differentiation from day 0 to day 10 increased the expression of retinal related genes, including VSX2, LHX2, HES5, SIX3 and SIX6 (FIG. 8C). […] To further corroborate the role of WNTs in mediating the function of PAX6D in retinal specification, we then activated WNT pathway signaling under PAX6D induction along retinal differentiation.
# (§3) PAX6 KO and PAX6D KO cell lines were designed by inserting the PGK-Puromycin in exon 8 and exon alpha of the PAX6 gene, respectively, which terminates the normal translation of PAX6 genes early and PAX6D isoform specifically. The PAX6 KO cells were then used to generate PAX6A TetOn and PAX6D TetOn by inserting the TetOn-PAX6A-3×FLAG and TetOn-PAX6D-3×FLAG into the AAVS1 site of PAX6 KO genome.
# Retinal differentiation from human pluripotent stem cells was performed using the published protocol (Zhong et al., 2014). Briefly, hESCs were passaged to Vitronectin-coated plates and cultured to 60-70% confluency. On day 0 of retinal differentiation, cells were enzymatically detached by dispase (1 mg/ml) and cultured in suspension with E8 medium to form embryoid bodies (EB). EBs were gradually transitioned into neural induction medium (NIM) containing DMEM/F12 (1:1), 1% N2 and 1×NEAA by replacing the medium with a 3:1 ratio of E8/NIM on day 1, 1:1 on day 2, and 100% NIM on day 3. […]
# (§4) Total RNA was isolated with the RNeasy Plus Mini Kit according to the manufacturer's instructions. For quantitative PCR (qPCR), cDNA was synthesized using PrimeScrip RT Reagent Kit. qPCR was performed using iTaq Universal SYBR Green Supermix. […]
# [2] = test system: wildtype cells (H9 hESCs) in retinal differentiation; assay: qPCR of retinal gene (EFTF) expression in wildtype cells during retinal differentiation under WNT agonist/antagonist
# Procedure: WNT8B has a restricted expression in the developing dorsal forebrain (Lako et al., 1998) and plays a repressive role in retinal fate specification (Liu et al., 2010). […] Given the direct connection between PAX6D and WNT8B, we hypothesized that PAX6D regulates retinal specification by repressing WNT8B transcription and thus WNT activity. Indeed, treatment with WNT agonist (CHIR99021, 3 μM) in wildtype cells from day 0 to day 10 suppressed the expression EFTFs. In contrast, treatment with a WNT antagonist (IWR1, 2.5 μM) in wildtype cells enhanced the expression of EFTFs (FIG. 8B).
# Retinal differentiation from human pluripotent stem cells was performed using the published protocol (Zhong et al., 2014). Briefly, hESCs were passaged to Vitronectin-coated plates and cultured to 60-70% confluency. On day 0 of retinal differentiation, cells were enzymatically detached by dispase (1 mg/ml) and cultured in suspension with E8 medium to form embryoid bodies (EB). […]
# as §4
# PAX6A TetOn cells = assay: Flow cytometry of SOX1-/SOX2+ retinal progenitor population in PAX6A TetOn cells; conditions: PAX6A induced (from 2.45% without induction)
# Procedure: as §1
# (§5) Flow cytometry was performed using Transcription Factor Buffer Set which is designed for transcription factor staining following manufacturer's instruction. Briefly, single cells were prepared using TrypLE Express Enzyme and fixed in the fixation buffer provided by the kit at 2-8° C. for 45 min. After 3 washings with the permeable buffer, the primary antibodies (PE-SOX1, V450-SOX2) were added to cells for 45 min at 2-8° C. in a light-tight box. The cells were washed 3 times before analyzed by flow cytometry (BD LSR or BD LSRII). Data analysis was performed using FlowJo.
# PAX6D TetOn cells [3] = assay: Flow cytometry of SOX1-/SOX2+ retinal progenitor population in PAX6D TetOn cells; conditions: PAX6D induced (from 2.71% without induction)
# Procedure: as §1, §5
# PAX6D KO cells = assay: qPCR of retinal gene expression in PAX6D KO cells treated with WNT antagonist (rescue of retinal differentiation); conditions: treatment from day 0 to day 10 of retinal differentiation
# Text: as §2, §3
# Retinal differentiation from human pluripotent stem cells was performed using the published protocol (Zhong et al., 2014). Briefly, hESCs were passaged to Vitronectin-coated plates and cultured to 60-70% confluency. […]
# as §4
# [4] = PAX6D TetOn in PAX6 KO, DOX for 7 days from day 6 of retinal differentiation
smiles,measurement,setting,value
Cc1c[nH]c(-c2cnc(NCCNc3ccc(C#N)cn3)nc2-c2ccc(Cl)cc2Cl)n1 [CHIR99021],"PAX6D-induced retinal differentiation (expression of VSX2, LHX2, SIX6, NR2F1 and VAX2 at day 10)","PAX6D TetOn cells [1]; PAX6D TetOn cells induced by DOX, WNT agonist from day 0 to day 10",completely blocked
same,expression of EFTFs (qPCR),[2]; WNT agonist 3 μM from day 0 to day 10 of retinal differentiation,suppressed
"C[C@H]1c2cccc(O)c2C(=O)C2=C(O)[C@]3(O)C(=O)C(C(N)=O)=C(O)[C@@H](N(C)C)[C@@H]3[C@@H](O)[C@@H]21 [DOX, doxycycline]",SOX1-/SOX2+ retinal progenitor population (flow cytometry),PAX6A TetOn cells,2.22%
same,VAX2 expression increase,PAX6D TetOn cells [1]; [4],2 fold
same,VSX2 expression increase,PAX6D TetOn cells [1]; [4],3 fold
same,SOX1-/SOX2+ retinal progenitor population (flow cytometry),PAX6D TetOn cells [3],23.1%
O=C(Nc1cccc2cccnc12)c1ccc(N2C(=O)[C@@H]3[C@H](C2=O)[C@@H]2C=C[C@H]3C2)cc1 [IWR1],"expression of retinal related genes, including VSX2, LHX2, HES5, SIX3 and SIX6",PAX6D KO cells,increased
same,expression of EFTFs (qPCR),[2]; WNT antagonist 2.5 μM,enhanced
